Laboratory results taken from ChEMBL document CHEMBL4800729 (2021).

Columns and labels:
[1] = target: Beta-adrenergic receptor kinase 1 (Homo sapiens) (UniProt P25098); assay: GRK2(h) Millipore kinase panel; conditions: Compound concentration 1.0 uM
[2] = target: Serine/threonine-protein kinase TBK1 (Homo sapiens) (UniProt Q9UHD2); assay: TBK1(h) Millipore kinase panel; conditions: Compound concentration 1.0 uM
[3] = target: Calcium/calmodulin-dependent protein kinase type IV (Homo sapiens) (UniProt Q16566); assay: CaMKIV(h) Millipore kinase panel; conditions: Compound concentration 1.0 uM
[4] = target: Alpha-2A adrenergic receptor (Homo sapiens) (UniProt P08913); conditions: Compound concentration 10.0 uM
[5] = target: CDK3/cyclin E (Homo sapiens) (UniProt P24864+O96020+Q00526); assay: CDK3/cyclinE(h) Millipore kinase panel; format: protein-complex assay; conditions: Compound concentration 1.0 uM
[6] = target: Serine/threonine-protein kinase Nek1 (Homo sapiens) (UniProt Q96PY6); assay: NEK1(h) Millipore kinase panel; conditions: Compound concentration 1.0 uM
[7] = target: cAMP-dependent protein kinase catalytic subunit beta (Homo sapiens) (UniProt P22694); assay: PKACbeta(h) Millipore kinase panel; conditions: Compound concentration 1.0 uM
[8] = target: Serine/threonine-protein kinase SIK3 (Homo sapiens) (UniProt Q9Y2K2); assay: SIK3(h) Millipore kinase panel; conditions: Compound concentration 1.0 uM
[9] = target: RAC-alpha serine/threonine-protein kinase (Homo sapiens) (UniProt P31749); assay: PKBalpha(h) Millipore kinase panel; conditions: Compound concentration 1.0 uM
RAC-alpha serine/threonine-protein kinase (Homo sapiens), sequence (P31749 whole entry): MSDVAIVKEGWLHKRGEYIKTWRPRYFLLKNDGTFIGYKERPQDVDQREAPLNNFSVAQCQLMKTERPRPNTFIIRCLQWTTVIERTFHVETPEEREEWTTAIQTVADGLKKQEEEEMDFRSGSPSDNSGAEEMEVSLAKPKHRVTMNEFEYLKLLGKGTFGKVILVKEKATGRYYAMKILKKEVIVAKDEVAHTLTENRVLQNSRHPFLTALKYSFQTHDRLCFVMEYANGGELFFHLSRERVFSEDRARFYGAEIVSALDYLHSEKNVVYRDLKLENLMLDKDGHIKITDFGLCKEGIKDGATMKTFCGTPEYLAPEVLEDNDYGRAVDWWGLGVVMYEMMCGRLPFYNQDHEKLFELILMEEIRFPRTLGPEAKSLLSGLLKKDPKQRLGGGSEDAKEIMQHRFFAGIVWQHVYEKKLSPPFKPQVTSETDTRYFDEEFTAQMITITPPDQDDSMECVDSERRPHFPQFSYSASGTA

[10] = target: Muscarinic acetylcholine receptor M3 (Homo sapiens) (UniProt P20309); conditions: Compound concentration 10.0 uM
[11] = target: Protein kinase C gamma type (Homo sapiens) (UniProt P05129); assay: PKCgamma(h) Millipore kinase panel; conditions: Compound concentration 1.0 uM
[12] = target: STE20/SPS1-related proline-alanine-rich protein kinase (Homo sapiens) (UniProt Q9UEW8); assay: STK39(h) Millipore kinase panel; conditions: Compound concentration 1.0 uM
[13] = target: Activin receptor type-1-like (Homo sapiens) (UniProt P37023); assay: ALK1(h) Millipore kinase panel; conditions: Compound concentration 1.0 uM
[14] = target: Serine/threonine-protein kinase tousled-like 1 (Homo sapiens) (UniProt Q9UKI8); assay: TLK1(h) Millipore kinase panel; conditions: Compound concentration 1.0 uM
[15] = target: Protein kinase C iota type (Homo sapiens) (UniProt P41743); assay: PKCiota(h) Millipore kinase panel; conditions: Compound concentration 1.0 uM
[16] = target: Hepatocyte growth factor receptor (Homo sapiens) (UniProt P08581); assay: Met(h) Millipore kinase panel; conditions: Compound concentration 1.0 uM
[17] = target: NT-3 growth factor receptor (Homo sapiens) (UniProt Q16288); assay: TrkC(h) Millipore kinase panel; conditions: Compound concentration 1.0 uM
NT-3 growth factor receptor (Homo sapiens), sequence (Q16288 32-839 limits assumed): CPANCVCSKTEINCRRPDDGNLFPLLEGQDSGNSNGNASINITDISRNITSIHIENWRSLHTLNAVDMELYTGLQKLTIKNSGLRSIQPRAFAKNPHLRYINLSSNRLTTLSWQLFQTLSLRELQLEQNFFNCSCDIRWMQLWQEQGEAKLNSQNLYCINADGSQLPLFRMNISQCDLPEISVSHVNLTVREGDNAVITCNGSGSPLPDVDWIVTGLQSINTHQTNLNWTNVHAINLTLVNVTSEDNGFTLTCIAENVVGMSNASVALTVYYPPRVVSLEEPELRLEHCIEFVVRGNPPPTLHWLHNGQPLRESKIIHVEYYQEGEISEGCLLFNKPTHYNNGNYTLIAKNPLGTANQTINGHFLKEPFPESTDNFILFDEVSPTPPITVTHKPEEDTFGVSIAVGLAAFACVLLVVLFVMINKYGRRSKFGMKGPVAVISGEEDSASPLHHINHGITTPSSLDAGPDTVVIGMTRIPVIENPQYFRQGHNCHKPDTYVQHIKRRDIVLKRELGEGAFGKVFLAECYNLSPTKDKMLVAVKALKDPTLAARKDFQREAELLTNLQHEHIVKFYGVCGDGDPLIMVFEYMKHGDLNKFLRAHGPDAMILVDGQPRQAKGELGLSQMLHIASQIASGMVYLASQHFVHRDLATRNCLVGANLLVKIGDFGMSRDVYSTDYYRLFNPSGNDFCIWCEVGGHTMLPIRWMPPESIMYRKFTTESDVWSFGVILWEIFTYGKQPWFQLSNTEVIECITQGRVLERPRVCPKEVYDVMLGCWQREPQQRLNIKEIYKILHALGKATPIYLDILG

[18] = target: Death-associated protein kinase 1 (Homo sapiens) (UniProt P53355); assay: DAPK1(h) Millipore kinase panel; conditions: Compound concentration 1.0 uM
[19] = target: Serine/threonine-protein kinase DCLK1 (Homo sapiens) (UniProt O15075); assay: DCAMKL1(h) Millipore kinase panel; conditions: Compound concentration 1.0 uM
[20] = target: Discoidin domain-containing receptor 2 (Homo sapiens) (UniProt Q16832); assay: DDR2(h) Millipore kinase panel; conditions: Compound concentration 1.0 uM
[21] = target: Phosphorylase b kinase gamma catalytic chain, skeletal muscle/heart isoform (Homo sapiens) (UniProt Q16816); assay: PhKgamma1(h) Millipore kinase panel; conditions: Compound concentration 1.0 uM
[22] = target: Interferon-induced, double-stranded RNA-activated protein kinase (Homo sapiens) (UniProt P19525); assay: PKR(h) Millipore kinase panel; conditions: Compound concentration 1.0 uM
[23] = target: Tyrosine-protein kinase receptor UFO (Homo sapiens) (UniProt P30530); assay: Axl(h) Millipore kinase panel; conditions: Compound concentration 1.0 uM
[24] = target: Ephrin type-A receptor 7 (Homo sapiens) (UniProt Q15375); assay: EphA7(h) Millipore kinase panel; conditions: Compound concentration 1.0 uM
Ephrin type-A receptor 7 (Homo sapiens), sequence (Q15375 28-998 limits assumed): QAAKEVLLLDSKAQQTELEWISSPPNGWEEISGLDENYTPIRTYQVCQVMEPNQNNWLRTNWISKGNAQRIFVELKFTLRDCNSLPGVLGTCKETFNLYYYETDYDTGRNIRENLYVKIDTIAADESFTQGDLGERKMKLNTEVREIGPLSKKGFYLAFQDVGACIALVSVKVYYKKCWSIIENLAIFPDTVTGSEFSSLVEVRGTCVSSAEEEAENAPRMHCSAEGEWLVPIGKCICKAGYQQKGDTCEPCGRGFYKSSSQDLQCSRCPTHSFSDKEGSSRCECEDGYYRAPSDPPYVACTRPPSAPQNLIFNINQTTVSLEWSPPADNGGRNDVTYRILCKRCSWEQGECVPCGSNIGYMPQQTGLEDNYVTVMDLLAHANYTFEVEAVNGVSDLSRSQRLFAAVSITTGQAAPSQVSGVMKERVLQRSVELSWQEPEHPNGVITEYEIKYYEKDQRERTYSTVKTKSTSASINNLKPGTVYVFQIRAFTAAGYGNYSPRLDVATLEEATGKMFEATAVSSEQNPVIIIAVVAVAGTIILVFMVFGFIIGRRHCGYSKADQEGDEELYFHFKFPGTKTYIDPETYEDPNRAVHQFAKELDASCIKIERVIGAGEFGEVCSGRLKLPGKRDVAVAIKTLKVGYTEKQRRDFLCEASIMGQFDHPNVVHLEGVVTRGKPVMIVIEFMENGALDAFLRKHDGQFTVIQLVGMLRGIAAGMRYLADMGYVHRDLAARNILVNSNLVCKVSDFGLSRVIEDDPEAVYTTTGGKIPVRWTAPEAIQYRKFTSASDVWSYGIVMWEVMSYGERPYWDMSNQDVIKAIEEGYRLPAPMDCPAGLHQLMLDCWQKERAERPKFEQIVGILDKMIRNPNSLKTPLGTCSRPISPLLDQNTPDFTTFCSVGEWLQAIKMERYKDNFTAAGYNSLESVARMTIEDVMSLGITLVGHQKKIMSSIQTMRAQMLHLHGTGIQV

[25] = target: SRSF protein kinase 3 (Homo sapiens) (UniProt Q9UPE1); assay: MSSK1(h) Millipore kinase panel; conditions: Compound concentration 1.0 uM
[26] = target: Insulin receptor (Homo sapiens) (UniProt P06213); conditions: Rattus norvegicus; Compound concentration 10.0 uM
Insulin receptor (Homo sapiens), sequence (P06213 28-758 limits assumed): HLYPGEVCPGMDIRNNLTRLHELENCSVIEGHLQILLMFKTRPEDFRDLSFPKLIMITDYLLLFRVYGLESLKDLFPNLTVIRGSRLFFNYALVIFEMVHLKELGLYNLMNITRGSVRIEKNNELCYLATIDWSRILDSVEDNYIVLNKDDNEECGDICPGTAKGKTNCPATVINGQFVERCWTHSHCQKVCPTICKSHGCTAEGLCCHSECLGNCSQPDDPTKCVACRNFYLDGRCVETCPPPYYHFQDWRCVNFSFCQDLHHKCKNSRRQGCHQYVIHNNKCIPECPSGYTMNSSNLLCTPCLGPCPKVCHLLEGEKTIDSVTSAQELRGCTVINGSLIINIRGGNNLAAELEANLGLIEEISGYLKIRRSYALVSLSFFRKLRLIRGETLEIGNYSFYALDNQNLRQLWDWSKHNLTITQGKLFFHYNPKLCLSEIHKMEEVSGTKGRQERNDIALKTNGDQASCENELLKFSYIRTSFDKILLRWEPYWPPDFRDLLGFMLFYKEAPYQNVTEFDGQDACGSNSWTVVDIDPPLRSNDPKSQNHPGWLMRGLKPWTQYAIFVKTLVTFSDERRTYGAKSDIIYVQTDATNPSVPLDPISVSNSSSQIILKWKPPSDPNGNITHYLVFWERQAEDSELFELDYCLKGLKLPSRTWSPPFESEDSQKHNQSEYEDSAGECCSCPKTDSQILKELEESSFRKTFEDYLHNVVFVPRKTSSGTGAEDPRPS
Insulin receptor (Homo sapiens), sequence (P06213 763-1382 limits assumed): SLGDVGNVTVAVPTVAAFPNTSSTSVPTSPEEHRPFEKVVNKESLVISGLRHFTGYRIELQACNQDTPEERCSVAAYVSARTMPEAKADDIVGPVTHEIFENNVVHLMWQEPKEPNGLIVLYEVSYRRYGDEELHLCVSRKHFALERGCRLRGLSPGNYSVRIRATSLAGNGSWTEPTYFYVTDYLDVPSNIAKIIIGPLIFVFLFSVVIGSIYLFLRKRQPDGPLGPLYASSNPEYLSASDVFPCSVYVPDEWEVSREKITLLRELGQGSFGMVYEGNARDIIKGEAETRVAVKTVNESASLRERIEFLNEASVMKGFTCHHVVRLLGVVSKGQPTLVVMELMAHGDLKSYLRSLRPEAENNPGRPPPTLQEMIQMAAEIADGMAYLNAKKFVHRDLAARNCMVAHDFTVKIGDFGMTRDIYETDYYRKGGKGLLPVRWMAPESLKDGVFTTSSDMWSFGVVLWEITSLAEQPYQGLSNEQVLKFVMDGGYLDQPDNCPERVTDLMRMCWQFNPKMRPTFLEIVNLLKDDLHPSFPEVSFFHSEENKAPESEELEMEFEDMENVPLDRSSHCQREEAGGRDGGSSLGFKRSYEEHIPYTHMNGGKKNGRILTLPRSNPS

[27] = target: Serine/threonine-protein kinase 10 (Homo sapiens) (UniProt O94804); assay: LOK(h) Millipore kinase panel; conditions: Compound concentration 1.0 uM
[28] = target: Transcription initiation factor TFIID subunit 1-like (Homo sapiens) (UniProt Q8IZX4); assay: TAF1L(h) Millipore kinase panel; conditions: Compound concentration 1.0 uM
Rattus norvegicus = organism: Rattus norvegicus; conditions: Compound concentration 10.0 uM
[29] = target: T1, Alpha-2B adrenergic receptor (Homo sapiens) (UniProt P18089); conditions: Compound concentration 10.0 uM
T1 sequence (whole entry): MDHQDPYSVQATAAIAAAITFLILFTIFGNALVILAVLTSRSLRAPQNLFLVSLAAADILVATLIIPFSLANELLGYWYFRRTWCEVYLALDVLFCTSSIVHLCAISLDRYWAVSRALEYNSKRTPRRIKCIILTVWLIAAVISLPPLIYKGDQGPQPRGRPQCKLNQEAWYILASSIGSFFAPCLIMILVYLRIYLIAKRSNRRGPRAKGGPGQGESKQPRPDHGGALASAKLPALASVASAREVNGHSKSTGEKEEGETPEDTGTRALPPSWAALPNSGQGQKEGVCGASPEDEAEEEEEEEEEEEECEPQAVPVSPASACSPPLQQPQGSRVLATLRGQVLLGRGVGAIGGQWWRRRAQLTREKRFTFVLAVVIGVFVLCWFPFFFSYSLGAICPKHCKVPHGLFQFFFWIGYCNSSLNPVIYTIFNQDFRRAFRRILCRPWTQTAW

[30] = target: LIM domain kinase 1 (Homo sapiens) (UniProt P53667); assay: LIMK1(h) Millipore kinase panel; conditions: Compound concentration 1.0 uM
[31] = target: Sodium-dependent dopamine transporter (Homo sapiens) (UniProt Q01959); conditions: Compound concentration 10.0 uM
[32] = target: Purinergic P2Y (Rattus norvegicus) (UniProt O35811+Q9EPX4+P49651+Q63371+P41232+O35881+Q6GUG4); assay: Inhibition of Purinergic P2Y at compound concentration of 10.0 uM in the Eurofins-Panlabs radioligand binding assay (Eurofins_assay_268820); format: protein assay; set-up: ligand concentration 0.1 nM; conditions: Compound concentration 10.0 uM
[33] = target: 5-hydroxytryptamine receptor 2C (Homo sapiens) (UniProt P28335); conditions: Compound concentration 10.0 uM
[34] = target: LIM domain kinase 2 (Homo sapiens) (UniProt P53671); assay: LIMK2(h) Millipore kinase panel; conditions: Compound concentration 1.0 uM
[35] = target: Tyrosine-protein kinase Lyn (Homo sapiens) (UniProt P07948); assay: Lyn(h) Millipore kinase panel; conditions: Compound concentration 1.0 uM
[36] = target: RAC-beta serine/threonine-protein kinase (Homo sapiens) (UniProt P31751); assay: PKBbeta(h) Millipore kinase panel; conditions: Compound concentration 1.0 uM
[37] = target: Activin receptor type-1 (Homo sapiens) (UniProt Q04771); assay: ALK2(h) Millipore kinase panel; conditions: Compound concentration 1.0 uM
[38] = target: 5'-AMP-activated protein kinase catalytic subunit alpha-2 (Homo sapiens) (UniProt P54646); assay: AMPKalpha2(h) Millipore kinase panel; conditions: Compound concentration 1.0 uM
5'-AMP-activated protein kinase catalytic subunit alpha-2 (Homo sapiens), sequence (P54646 whole entry, looked up): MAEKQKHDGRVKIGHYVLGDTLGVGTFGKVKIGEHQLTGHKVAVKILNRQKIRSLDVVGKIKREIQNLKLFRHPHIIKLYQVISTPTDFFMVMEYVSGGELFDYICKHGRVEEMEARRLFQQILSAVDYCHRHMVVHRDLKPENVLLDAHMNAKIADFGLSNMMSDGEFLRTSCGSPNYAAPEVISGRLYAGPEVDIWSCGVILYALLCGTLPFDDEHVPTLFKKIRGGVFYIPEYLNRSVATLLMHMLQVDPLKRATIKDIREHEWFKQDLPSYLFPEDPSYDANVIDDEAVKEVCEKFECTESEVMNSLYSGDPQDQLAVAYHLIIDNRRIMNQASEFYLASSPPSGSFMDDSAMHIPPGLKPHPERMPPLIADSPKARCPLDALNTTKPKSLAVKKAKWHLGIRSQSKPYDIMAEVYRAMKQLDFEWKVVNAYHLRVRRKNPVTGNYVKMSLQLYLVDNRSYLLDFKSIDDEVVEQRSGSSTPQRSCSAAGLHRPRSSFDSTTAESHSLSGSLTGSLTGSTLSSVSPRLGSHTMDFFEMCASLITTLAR

Sus scrofa = organism: Sus scrofa; assay: Inhibition of ATPase, Na+/K+, Heart at compound concentration of 10.0 uM in the Eurofins-Panlabs enzyme assay (Eurofins_assay_107710); set-up: substrate with concentration; conditions: Compound concentration 10.0 uM
[39] = target: B1 bradykinin receptor (Homo sapiens) (UniProt P46663); conditions: Compound concentration 10.0 uM
[40] = target: Histamine H1 receptor (Homo sapiens) (UniProt P35367); conditions: Compound concentration 10.0 uM

Measured: inhibition

CC[C@@H](Nc1c(C#N)c(-c2ccc(-c3cccc(C)c3F)cc2)nc2cnccc12)C(=O)O [BAY-091]
inactive: [1] 1.9% | [2] 8.44% | [3] 7.26% | [4] 5.7% | [5] 2.41% | [6] 24.4% | [7] 6.73% | [8] 5.14% | [9] -1.04% | [10] 0% | [11] -0.39% | [12] 5.6% | [13] -6.17% | [14] -0.87% | [15] 5.85% | [16] 2.36% | [17] 14.8% | [18] -3.29% | [19] 13% | [20] 16.3% | [21] -9.06% | [22] 13.9% | [23] 12.6% | [24] 2.1% | [25] 4.51% | [26] -1% | [27] 8.13% | [28] -3.49% | Rattus norvegicus 1% | [29] -2% | [30] 8.64% | [31] 29.5% | [32] 31% | [33] -9.38% | [34] 3.03% | [35] 12.5% | [36] 3.52% | [37] 5.14% | [38] -5.39% | Sus scrofa 20% | [39] 0% | [40] 27%
